The values that follow come from patent publication US7001587B2, “Measurement of protein synthesis rates in humans and experimental systems by use of isotopically labeled water” (The Regents of the University of California, priority 2001, dated 2006).

Data set [1] in a line: In vitro ^2H label exchange / label stability studies. The data set is classed as physicochemical. Particulars: acid-hydrolysis conditions used for proteins (6N HCl).
The test system of data set [2] is humans and experimental animals. Nature of the data set: Long-term maintenance of high body water ^2H2O enrichment, toxicity. The data set is classed as in vivo. The note with it: 1–5% of total body water labeled, weeks or months, >100 people and experimental animals. An excerpt: Relatively high body water enrichments of ^2H2O (e.g., 1–5% of the total body water is labeled) have been achieved using the techniques of the invention. […] This finding in a large number of human subjects (>100 people) is contrary to previous concerns about vestibular toxicities at high doses of ^2H2O. Applicants have discovered that as long as rapid changes in body water enrichment are prevented (e.g., by initial administration in small, divided doses), high body water enrichments of ^2H2O can be maintained with no toxicities. Previous dosing of ^2H2O in humans, for other purposes (e.g., measurement of fatty acid or cholesterol synthesis or gluconeogenesis) have typically used lower doses and achieved lower body water enrichment. The low expense of commercially available ^2H2O allows long-term maintenance of enrichments in the 1–5% range at relatively low expense (e.g., lower cost for 2 months labeling at 2% ^2H2O enrichment, and thus 7–8% enrichment in the alanine precursor pool (FIGS. 2A–B), than for 12 hours labeling of ^2H-leucine at 10% free leucine enrichment, and thus 7–8% enrichment in leucine precursor pool for that period).

A further data set concerns rats. Nature of the data set: Tolerability of 4% ^2H2O drinking water in rats. Particulars: rats given 4% ^2H2O as drinking water. The format is in vivo.
The conditions of data set [3]: cited from earlier work.
In a further data set the test system is human subjects. Nature of the data set: Tolerability of daily oral ^2H2O in human subjects. Particulars: human subjects (healthy and HIV/AIDS) drinking 50–100 ml daily for 10–12 weeks. The data set is classed as in vivo.
The conditions of data set [4]: rat, in vivo.
Text: The ^2H2O labeling protocol consisted of an initial intraperitoneal (ip) injection of 99.9% ^2H2O, to achieve ca. 2.5% body water enrichment (assuming total body water to be 60% of body weight) followed by administration of 4% ^2H2O in drinking water. For labeling of rats in utero, 4% drinking water was started while the male and female adult rats were housed together for mating (i.e. before pregnancy) and the 4% ^2H2O drinking water was continued through the pregnancy and post-delivery period.
The ^2H2O enrichment of body water was measured by a GC/MS technique that we have described elsewhere (Neese et al., Analytic Biochem 298(2):189–95, 2001). Briefly, the hydrogen atoms from water (10 μL) were chemically transferred to acetylene by reaction with calcium carbide in a sealed vial. Acetylene gas was then derivatized by injection into another sealed vial containing 0.5 ml Br2 (0.1 mM) dissolved in CCl4, followed by quenching of remaining Br2 with cyclohexene. The resulting tetrabromoethane was dissolved in CCl4 and was analyzed by GC/MS, using a DB-225 column (30 m, J&W, Folsom, Calif.) at 180° C., with methane chemical ionization (C.I.). The ions at m/z 265 and 266 were analyzed using selected ion monitoring. These ions represent the M0 and M1 mass isotopomers of the C2H2Br3^+ fragment (^79Br^79Br^81Br isotopologue). The enrichments of ^2H2O in water samples were calculated by comparison to standard curves generated by mixing 100% ^2H2O with unlabeled H2O in known proportions (Neese et al., Analytic Biochem 298(2):189–95, 2001).
The test system of the next data set is bone collagen. The experiment in a line: Bone collagen synthesis rate (ks) in ovariectomized rats by ^2H2O labeling. The data set is classed as in vivo. The note with it: ovariectomized female rats, pellet 200 μg. Here is the method: The fractional synthesis or replacement rate (ks) of proteins or peptides may be determined by application of the continuous labeling, precursor-product formula: [formula] where A^∞ represents the asymptotic or plateau value of the amino acid I.E. (isotopic enrichment) possible under the labeling conditions present and AA(protein)t represents the measured protein-bound amino acid at time t.
Ovariectomy was performed in adult female rodents as described (9). After allowing 3 weeks for recovery from surgery, the rats received either estradiol by subcutaneous pellet (200 μg) or sham placement of pellet. ^2H2O labeling was initiated at the time of pellet placement and continued for 2 weeks, at which time the animals were sacrificed and bone was collected.
Rats were killed every 1–2 weeks during a 10-week period of ^2H2O administration. The rear left femur was collected and was dissected free of soft tissue. Bone marrow and trabecular bone were removed using a needle with sharp cutting surface (ref: Bone 2000). After washing 3 times with water, the bone was splintered and powdered under liquid N2 in a Spex mill and defatted with chloroform:methanol (1:1, v:v). After drying, the powdered bone was subjected to acid hydrolysis in 6N HCl (110° C., 24 hr). The free AA were dried under N2 gas and derivatized for analysis by gas chromatography/mass spectrometry (GC/MS). […]

Read-outs that look alike come from different tables or passages of the source. Bounds are passed on as bounds.

Take `[2H]C([2H])(N)C(=O)O` [^2H2-labeled glycine]: the “loss of ^2H-label” value in data set [1] was “no loss of ^2H-label was observed”.
As to `[2H]O[2H]` [^2H2O], the “toxicity at maintained body water enrichment” value in data set [2] is reported as “without any evidence of toxicity”. For the same compound, the “growth and signs of toxicity” value with rats was “grew normally and exhibited no signs of toxicity”. Also, in data set [3] (turnover of body water pool), the half-life was 14400 to 20200 min. Moreover, the “adverse effects or toxicities” value with human subjects is listed as “No adverse effects or toxicities were observed”. In data set [4], the “Body ^2H2O Enrichment (%)” value was determined as 2.6% and the “measured ^2H2O enrichment in maternal blood” value was found to be 2.4%.
Turning to ^2H-leucine, the half-life in data set [3] (in vivo) was less than 30 min.
For the compound `[2H]C(C)(N)C(=O)O` (stereo not drawn) [^2H1-labeled alanine], the “loss of ^2H-label” value in data set [1] is given as “no loss of ^2H-label was observed”.
^2H-glucose: the half-life in data set [3] (in vivo) is 20 min.
Turning to `C[C@]12CC[C@@H]3c4ccc(O)cc4CC[C@H]3[C@@H]1CC[C@@H]2O` [estrogen, estradiol], the “ks of bone collagen” value with bone collagen (2 weeks ^2H2O labeling) came to 0.008 day⁻¹. In the data set on bone collagen (2 weeks, compared to vehicle-implanted ovariectomized rats), the “decrease in ks of bone collagen” value was 35–40%.

As a reminder, the half-life is the time in which the quantity being followed falls by half.
